In patent US6875760B2 (Novo Nordisk A/S, priority 1999, dated 2005):

Biological target: T1, human glucagon receptor (Homo sapiens, UniProt P47871)
T1 construct: expressed in transfected cells; host or cells: BHK (baby hamster kidney) cells
Assay: Glucagon Binding Assay (III)
Settings: BHK cell membranes, WGA SPA beads, 125I-glucagon; read-out: Glu Bd Assay (III) IC50
Method in brief: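 Non-specific binding was set with 500 nM glucagon in this SPA-type binding assay using WGA beads. The receptor source was a membrane preparation, kept on ice or at 4 °C, from BHK cells transfected with the human receptor. Scintillation counts were taken after 4 hours of shaking and 8–48 hours of settling.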

T1 sequence (P47871 26-477): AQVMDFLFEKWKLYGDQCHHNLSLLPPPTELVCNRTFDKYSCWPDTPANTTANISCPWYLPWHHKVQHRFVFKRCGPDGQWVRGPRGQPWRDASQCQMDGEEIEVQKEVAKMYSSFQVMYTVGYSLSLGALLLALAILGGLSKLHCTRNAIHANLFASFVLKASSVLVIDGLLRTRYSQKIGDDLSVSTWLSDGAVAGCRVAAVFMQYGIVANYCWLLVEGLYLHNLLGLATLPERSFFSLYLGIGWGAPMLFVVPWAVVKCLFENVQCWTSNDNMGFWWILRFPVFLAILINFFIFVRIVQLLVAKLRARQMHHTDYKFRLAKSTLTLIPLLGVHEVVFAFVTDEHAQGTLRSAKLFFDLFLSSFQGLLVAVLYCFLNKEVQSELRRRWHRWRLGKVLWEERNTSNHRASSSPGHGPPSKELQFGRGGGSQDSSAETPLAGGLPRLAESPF

| IC50 | Compound |
| --- | --- |
| 73 nM | CC(C)N1C(=O)c2ccc(NC(=O)N(Cc3ccc(C(=O)NCCC(=O)O)cc3)c3ccc(C(C)(C)C)cc3)cc2C1=O [Example 630, 3-{4-[1-(4-tert-Butylphenyl)-3-(N′-isopropylphthalimid-4-yl)ureidomethyl]benzoylamino}propionic acid] |
| 75 nM | CCCCc1ccc(N(Cc2ccc(C(=O)Nc3nn[nH]n3)cc2)C(=O)Nc2cccc([N+](=O)[O-])c2)cc1 [Example 288, 4-[1-(4-Butylphenyl)-3-(3-nitrophenyl)ureidomethyl]-N-(2H-tetrazol-5-yl)benzamide] |
| 124 nM | CC(C)(C)C1CCC(N(Cc2ccc(C(=O)NCCC(=O)O)cc2)C(=O)Nc2ccc(F)c(C(F)(F)F)c2)CC1 (stereo not drawn) [Example 71, 3-{4-[1-(4-tert-Butylcyclohexyl)-3-(4-fluoro-3-trifluoromethylphenyl)ureidomethyl]benzoylamino}propionic acid] |
| 669 nM | CC(C)(C)C1CCC(N(Cc2ccc(C(=O)NCCC(=O)O)cc2)C(=O)c2ccc(Cc3ccccc3)cc2)CC1 (stereo not drawn) [Example 525, 3-(4-{[(4-Benzylbenzoyl)-(4-tert-butylcyclohexyl)amino]methyl}benzoylamino)propionic acid] |
| 5 nM | O=C(Nc1nn[nH]n1)c1ccc(CN(C(=O)Nc2cccc(C(F)(F)F)c2)c2ccc(C3CCCCC3)cc2)cc1 [Example 567, 4-[1-(4-Cyclohexylphenyl)-3-(3-trifluoromethylphenyl)ureidomethyl]-N-(2H-tetrazol-5-yl)benzamide] |
| 293 nM | O=C(O)CCNC(=O)c1ccc(CN(C(=O)c2cccc(C(F)(F)F)c2)c2ccc(C3CCCCC3)cc2)cc1 [Example 524, 3-(4-{[(4-Cyclohexylphenyl)-(3-trifluoromethylbenzoyl)amino]methyl}benzoylamino)propionic acid] |
| 58 nM | CC(NC(=O)N(Cc1ccc(C(=O)Nc2nn[nH]n2)cc1)c1ccc(C2CCCCC2)cc1)c1ccc(Cl)cc1 (stereo not drawn) [Example 336, 4-[3-[1-(4-Chlorophenyl)ethyl]-1-(4-cyclohexylphenyl)ureidomethyl]-N-(2H-tetrazol-5-yl)benzamide] |
| 1110 nM | CCCCC(CC)CN(Cc1ccc(C(=O)NCCC(=O)O)cc1)C(=O)Nc1ccc(C(C)C)cc1 (stereo not drawn) [Example 43, 3-{4-[1-(2-Ethylhexyl)-3-(4-isopropylphenyl)ureidomethyl]benzoylamino}propionic acid] |
| 59 nM | CC(C)C1CCC(N(Cc2ccc(C(=O)NCCC(=O)O)cc2)C(=O)Nc2ccc(OC(F)(F)F)cc2)CC1 (stereo not drawn) [Example 82, 3-{4-[1-(4-Isopropylcyclohexyl)-3-(4-trifluoromethoxyphenyl)ureidomethyl]benzoylamino}propionic acid] |
| 5 nM | CCCCN1C(=O)c2ccc(NC(=O)N(Cc3ccc(C(=O)Nc4nn[nH]n4)cc3)c3ccc(C4CCCCC4)cc3)cc2C1=O [Example 636, 4-[3-(N′-Butylphthalimid-4-yl)-1-(4-cyclohexylphenyl)ureidomethyl]-N-(2H-tetrazol-5-yl)benzamide] |
| 61 nM | O=C(Nc1nn[nH]n1)c1ccc(CN(C(=O)Nc2cccc([N+](=O)[O-])c2)c2ccc(C3=CCCCC3)cc2)cc1 [Example 308, 4-[1-(4-Cyclohex-1-enylphenyl)-3-(3-nitrophenyl)ureidomethyl]-N-(2H-tetrazol-5-yl)benzamide] |
| 146 nM | CC(C)(C)C1CCC(N(Cc2ccc(C(=O)NCCC(=O)O)cc2)C(=O)c2cc3cc(Cl)ccc3o2)CC1 (stereo not drawn) [Example 562, 3-(4-{[(4-tert-Butylcyclohexyl)-(5-chlorobenzofuran-2-carbonyl)amino]methyl}benzoylamino)propionic acid] |
| 256 nM | CN(C)C(=O)c1cccc(NC(=O)N(Cc2ccc(C(=O)Nc3nn[nH]n3)cc2)c2ccc(C3CCCCC3)cc2)c1 [Example 463, N,N-Dimethyl-3-{3-(4-cyclohexylphenyl)-3-[4-(2H-tetrazol-5-ylcarbamoyl)benzyl]ureido}benzamide] |
| 167 nM | O=C(O)CCNC(=O)c1ccc(CN(C(=O)Nc2cccc([N+](=O)[O-])c2)c2ccc(C3CCCCC3)cc2)cc1 [Example 443, 3-{4-[1-(4-Cyclohexylphenyl)-3-(3-nitrophenyl)ureidomethyl]benzoylamino}propionic acid] |
| 1980 nM | O=C(Nc1nn[nH]n1)c1ccc(CN(C(=O)c2cccc([N+](=O)[O-])c2)c2ccc(C3CCCCC3)cc2)cc1 [Example 481, 4-{[(4-Cyclohexylphenyl)-(3-nitrobenzoyl)amino]methyl}-N-(2H-tetrazol-5-yl)benzamide] |
| 10 nM | CC(C)(C)c1ccc(N(Cc2ccc(C(=O)Nc3nn[nH]n3)cc2)C(=O)Nc2ccc(OC(F)(F)F)cc2)cc1 [Example 374, 4-[1-(4-tert-Butylphenyl)-3-(4-trifluoromethoxyphenyl)ureidomethyl]-N-(2H-tetrazol-5-yl)benzamide] |
| 108 nM | CC(C)(C)C1CCC(N(Cc2ccc(C(=O)NCCC(=O)O)cc2)C(=O)Cc2ccc(OC(F)(F)F)cc2)CC1 (stereo not drawn) [Example 506, 3-[4-({(4-tert-Butylcyclohexyl)-[2-(4-trifluoromethoxyphenyl)acetyl]amino}methyl)benzoylamino]propionic acid] |
| 139 nM | CC(C)(C)C1CCC(N(Cc2ccc(C(=O)NCCC(=O)O)cc2)C(=O)Nc2ccc(SC(F)(F)F)cc2)CC1 (stereo not drawn) [Example 58, 3-{4-[1-(4-tert-Butylcyclohexyl)-3-(4-trifluoromethylsulfanylphenyl)ureidomethyl]benzoylamino}propionic acid] |
| 721 nM | CCCCOC(=O)c1ccc(NC(=O)N(CCc2ccc(Cl)cc2)Cc2ccc(C(=O)NCCC(=O)O)cc2)cc1 [Example 51, 4-{3-[4-(2-Carboxyethylcarbamoyl)benzyl]-3-[2-(4-chlorophenyl)ethyl]ureido}benzoic acid butyl ester] |
| 542 nM | CS(=O)(=O)c1cccc(NC(=O)N(Cc2ccc(C(=O)Nc3nn[nH]n3)cc2)C2CCC3(CCCCC3)CC2)c1 [Example 620, 4-[3-(3-Methylsulfonylphenyl)-1-spiro[5.5]undec-3-ylureidomethyl]-N-(2H-tetrazol-5-yl)benzamide] |
| 6 nM | CC(C)(C)c1ccc(N(Cc2ccc(C(=O)Nc3nn[nH]n3)cc2)C(=O)Nc2ccc3c(c2)C(=O)N(CC2CC2)C3=O)cc1 [Example 640, 4-[1-(4-tert-Butylphenyl)-3-(N′-[cyclopropylmethyl]phthalimid-4-yl)ureidomethyl]-N-(2H-tetrazol-5-yl)benzamide] |
| 38 nM | CCCCN1C(=O)c2ccc(NC(=O)N(Cc3ccc(C(=O)NCCC(=O)O)cc3)c3ccc(C(C)(C)C)cc3)cc2C1=O [Example 626, 3-{4-[3-(N′-Butylphthalimid-4-yl)-1-(4-tert-butylphenyl)ureidomethyl]benzoylamino}propionic acid] |
| 169 nM | CC(NC(=O)N(Cc1ccc(C(=O)Nc2nn[nH]n2)cc1)c1ccc(C2CCCCC2)cc1)c1ccc(Cl)cc1 (single isomer, unassigned) [Example 338, 4-[3-[1-(4-Chlorophenyl)ethyl]-1-(4-cyclohexylphenyl)ureidomethyl]-N-(2H-tetrazol-5-yl)benzamide] |
| 1100 nM | O=C(O)CCNC(=O)c1ccc(CN(CCc2ccc(Cl)c(Cl)c2)C(=O)Nc2ccc(OCc3ccccc3)cc2)cc1 [Example 47, 3-{4-[3-(4-Benzyloxyphenyl)-1-[2-(3,4-dichlorophenyl)ethyl]ureidomethyl]benzoylamino}propionic acid] |
| 126 nM | O=C(O)CCNC(=O)c1ccc(CN(CCC(c2ccccc2)c2ccccc2)C(=O)Nc2ccc(OC(F)(F)F)cc2)cc1 [Example 18, 3-{4-[1-(3,3-Diphenylpropyl)-3-(4-trifluoromethoxyphenyl)ureidomethyl]benzoylamino}propionic acid] |
| 26 nM | CC(C)(C)c1ccc(N(Cc2ccc(C(=O)Nc3nn[nH]n3)cc2)C(=O)Nc2cc(Cl)cc(Cl)c2)cc1 [Example 333, 4-[1-(4-tert-Butylphenyl)-3-(3,5-dichlorophenyl)ureidomethyl]-N-(2H-tetrazol-5-yl)benzamide] |

| Compound | IC50 |
| --- | --- |
| CC(C)(C)C1CCC(N(Cc2ccc(C(=O)NCCC(=O)O)cc2)C(=O)Oc2cc(C(F)(F)F)cc(C(F)(F)F)c2)CC1 (stereo not drawn) [Example 403, 3-(4-{[(3,5-Bis(trifluoromethyl)phenoxycarbonyl)-(4-tert-butylcyclohexyl)amino]methyl}benzoylamino)propionic acid] | 338 nM |
| CC(C)(C)C1CCC(N(Cc2ccc(C(=O)NCCC(=O)O)cc2)C(=O)Oc2ccc(Cl)c(Cl)c2)CC1 (stereo not drawn) [Example 401, 3-(4-{[(4-tert-Butylcyclohexyl)-(3,4-dichlorophenoxycarbonyl)amino]methyl}benzoylamino)propionic acid] | 176 nM |
| CC(C)(C)c1ccc(N(Cc2ccc(C(=O)NCCC(=O)O)cc2)C(=O)Oc2ccc(Cl)cc2Cl)cc1 [Example 407, 3-(4-{[(4-tert-Butylphenyl)-(2,4-dichlorophenoxycarbonyl)amino]methyl}benzoylamino)propionic acid] | 756 nM |
| CC(C)(C)c1ccc(N(Cc2ccc(C(=O)NCCC(=O)O)cc2)C(=O)Oc2ccc(OC(F)(F)F)cc2)cc1 [Example 411, 3-(4-{[(4-tert-Butylphenyl)-(4-trifluoromethoxyphenoxycarbonyl)amino]methyl}benzoylamino)propionic acid] | 704 nM |
| O=C(O)CCNC(=O)c1ccc(CN(C(=O)Oc2ccc(Br)cc2Br)c2ccc(C3CCCCC3)cc2)cc1 [Example 420, 3-(4-{[(4-Cyclohexylphenyl)-(2,4-dibromompheoxycarbonyl)amino]methyl}benzoylamino)propionic acid] | 729 nM |
| CS(=O)(=O)c1ccc(OC(=O)N(Cc2ccc(C(=O)Nc3nn[nH]n3)cc2)c2ccc(C3CCCCC3)cc2)cc1 [Example 622] | 4600 nM |

Same assay, conditions: Glu Bd Assay (III) IC50 (nM), BHK cell membranes, WGA SPA beads, 125I-glucagon

| Compound | IC50 |
| --- | --- |
| CCN(CC)C(=O)c1ccc(NC(=O)N(Cc2ccc(C(=O)NCCC(=O)O)cc2)[C@H]2CC[C@H](C(C)(C)C)CC2)cc1 [Example 240, 3-{4-[1-(trans-4-tert-Butylcyclohexyl)-3-(4-diethylcarbamoylphenyl)ureidomethyl]benzoylamino}propionic acid] | 2430 nM |
